From PubChem BioAssay (NCI)
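In this assay, cells in 96-well plates receive the compound at five concentrations for 48 hours. Endpoints are linearly interpolated between the surrounding concentrations. TGI is the concentration that stops growth completely.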

Experiments:
Experiment in all cases: NCI tumour cell line growth inhibition, 48 h
SF-295 CNS = test system: SF-295 CNS
NCI-H226 lung = test system: NCI-H226 lung
KM20L2 colon = test system: KM20L2 colon
CCRF-CEM leukemia = test system: CCRF-CEM leukemia
SW-620 colon = test system: SW-620 colon
HOP-18 NSCLC = test system: HOP-18 NSCLC
SF-539 CNS = test system: SF-539 CNS
OVCAR-3 ovarian = test system: OVCAR-3 ovarian
HL-60(TB) leukemia = test system: HL-60(TB) leukemia
OVCAR-4 ovarian = test system: OVCAR-4 ovarian
K-562 leukemia = test system: K-562 leukemia
SNB-78 CNS = test system: SNB-78 CNS
SK-MEL-5 melanoma = test system: SK-MEL-5 melanoma
HT29 colon = test system: HT29 colon
KM12 colon = test system: KM12 colon
DMS 114 small cell lung = test system: DMS 114 small cell lung
LOX IMVI melanoma = test system: LOX IMVI melanoma
TK-10 renal = test system: TK-10 renal
M19-MEL melanoma = test system: M19-MEL melanoma
XF 498 CNS = test system: XF 498 CNS
HOP-92 NSCLC = test system: HOP-92 NSCLC
HOP-62 NSCLC = test system: HOP-62 NSCLC
HCC-2998 colon = test system: HCC-2998 colon
OVCAR-5 ovarian = test system: OVCAR-5 ovarian
DLD-1 colon = test system: DLD-1 colon
SK-OV-3 ovarian = test system: SK-OV-3 ovarian
IGROV1 ovarian = test system: IGROV1 ovarian
UACC-257 melanoma = test system: UACC-257 melanoma
A549 NSCLC = test system: A549 NSCLC
NCI-H522 lung = test system: NCI-H522 lung
EKVX NSCLC = test system: EKVX NSCLC
ACHN renal = test system: ACHN renal
LXFL 529 NSCLC = test system: LXFL 529 NSCLC
CAKI-1 renal = test system: CAKI-1 renal
COLO 205 colon = test system: COLO 205 colon
MALME-3M melanoma = test system: MALME-3M melanoma
UO-31 renal = test system: UO-31 renal
SK-MEL-2 melanoma = test system: SK-MEL-2 melanoma
OVCAR-8 ovarian = test system: OVCAR-8 ovarian
HCT-15 colon = test system: HCT-15 colon
RXF 393 renal = test system: RXF 393 renal
UACC-62 melanoma = test system: UACC-62 melanoma
HCT-116 colon = test system: HCT-116 colon
SR leukemia = test system: SR leukemia
RXF-631 renal = test system: RXF-631 renal
SF-268 CNS = test system: SF-268 CNS
U251 CNS = test system: U251 CNS
SK-MEL-28 melanoma = test system: SK-MEL-28 melanoma
NCI-H460 lung = test system: NCI-H460 lung
SNB-75 CNS = test system: SNB-75 CNS
SNB-19 CNS = test system: SNB-19 CNS
NCI-H23 lung = test system: NCI-H23 lung
M14 melanoma = test system: M14 melanoma
DMS 273 small cell lung = test system: DMS 273 small cell lung
MOLT-4 leukemia = test system: MOLT-4 leukemia
A498 renal = test system: A498 renal
SN12C renal = test system: SN12C renal
786-0 renal = test system: 786-0 renal

Measured: TGI

CCCOC(=O)CNC(=O)OC(C)(C)C
not listed: MOLT-4 leukemia | A498 renal | SN12C renal | 786-0 renal
> 100 µM: all other assays above

C[Si](C)(C)/C(Br)=C\CCN1C(=O)CCC1=O
not listed: NCI-H522 lung
> 100 µM: all other assays above
